Compound: CCn1c(-c2nonc2N)nc2c(C#CC(C)(C)O)ncc(OC[C@H]3CCCNC3)c21 + CC1(C)CCC(c2ccc(Cl)cc2)=C(CN2CCN(c3ccc(C(=O)NS(=O)(=O)c4ccc(N[C@H](CCN5CCOCC5)CSc5ccccc5)c(S(=O)(=O)C(F)(F)F)c4)cc3)CC2)C1 [Navitoclax] (partner 0.5 µM)
Assay: relative viability (nuclei count vs DMSO), 5 days (fraction); higher = more cells survive
Conditions: first compound 0.3162 µM
How it was run: (§1)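 Lung cancer cell lines were pin-tool dosed in 1536-well plates on the day after seeding, with either a lone drug or a fixed anchor-drug dose plus five library-drug doses (not always all listed) in √10 steps. Nuclei were counted on 4× images after 5 days. Relative viability is the ratio of treated-well to vehicle-well nuclei counts, with each value a median of duplicate plates.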

Q: With HCC-44 as the cell line, how does the relative viability read?
A: The relative viability was 0.851.

Q: For A549, which relative viability is on record?
A: Its relative viability is 1.08.

Q: For NCI-H1299, which relative viability is on record?
A: Its relative viability is 1.03.

Q: For NCI-H1792, which relative viability is on record?
A: The relative viability was 0.62.

Same assay, conditions: first compound 1 µM

Q: NCI-H727 was tested. Which relative viability did it give?
A: The relative viability was 0.418.

Q: NCI-H1650 was tested. Which relative viability did it give?
A: The relative viability was 1.13.

Q: Which relative viability does the source give for EBC-1 here?
A: The relative viability was 0.188.

Q: NCI-H1703 was tested. Which relative viability did it give?
A: The relative viability was 0.505.

Q: With NCI-H1993 as the cell line, how does the relative viability read?
A: Its relative viability is 0.961.

Q: How did the relative viability turn out when SW 1573 was run?
A: Its relative viability is 0.735.

Q: How did the relative viability turn out when NCI-H838 was run?
A: The relative viability was 1.19.

Q: NCI-H520 was tested. Which relative viability did it give?
A: Its relative viability is 0.797.

Q: NCI-H2126 was tested. Which relative viability did it give?
A: Its relative viability is 0.88.

Q: With EMC-BAC-2 as the cell line, how does the relative viability read?
A: Its relative viability is 1.13.

Q: With NCI-H2085 as the cell line, how does the relative viability read?
A: The relative viability was 1.07.

Q: With Calu-6 as the cell line, how does the relative viability read?
A: The relative viability was 0.983.

Q: Which relative viability does the source give for HCC-366 here?
A: Its relative viability is 1.02.

Q: For NCI-H1666, which relative viability is on record?
A: The relative viability was 0.871.

Q: Which relative viability does the source give for NCI-H596 here?
A: The relative viability was 0.938.

Q: With LK-2 as the cell line, how does the relative viability read?
A: Its relative viability is 0.889.

Q: For NCI-H2087, which relative viability is on record?
A: The relative viability was 1.02.

Q: How did the relative viability turn out when SK-MES-1 was run?
A: Its relative viability is 1.2.

Q: With H3255 as the cell line, how does the relative viability read?
A: The relative viability was 0.466.

Q: How did the relative viability turn out when COR-L23 was run?
A: Its relative viability is 1.03.

Q: Which relative viability does the source give for IA-LM here?
A: The relative viability was 0.313.

Q: HCC-44 was tested. Which relative viability did it give?
A: The relative viability was 0.981.

Q: Which relative viability does the source give for A549 here?
A: The relative viability was 1.06.

Q: How did the relative viability turn out when NCI-H1299 was run?
A: Its relative viability is 1.08.

Q: How did the relative viability turn out when NCI-H1792 was run?
A: The relative viability was 0.604.

Compound: CCOC1=CC=CC=C1N=NC2=C(NN(C2=O)C3=NC(=CS3)C4=CC=CC=C4)C [BAM7] + CC1(C)CCC(c2ccc(Cl)cc2)=C(CN2CCN(c3ccc(C(=O)NS(=O)(=O)c4ccc(N[C@H](CCN5CCOCC5)CSc5ccccc5)c(S(=O)(=O)C(F)(F)F)c4)cc3)CC2)C1 [Navitoclax] (partner 0.5 µM)
Assay: as above
Conditions: first compound 0.5 µM
How it was run: as §1

Q: For NCI-H727, which relative viability is on record?
A: Its relative viability is 0.419.

Q: Which relative viability does the source give for NCI-H1650 here?
A: Its relative viability is 1.46.

Q: Which relative viability does the source give for EBC-1 here?
A: Its relative viability is 0.403.

Q: For NCI-H1703, which relative viability is on record?
A: Its relative viability is 1.35.

Q: NCI-H1993 was tested. Which relative viability did it give?
A: Its relative viability is 0.819.

Q: For SW 1573, which relative viability is on record?
A: The relative viability was 0.89.

Q: For NCI-H838, which relative viability is on record?
A: Its relative viability is 1.2.

Q: NCI-H520 was tested. Which relative viability did it give?
A: Its relative viability is 1.09.

Q: With NCI-H2126 as the cell line, how does the relative viability read?
A: Its relative viability is 0.841.

Q: Which relative viability does the source give for EMC-BAC-2 here?
A: Its relative viability is 1.2.

Q: For NCI-H2085, which relative viability is on record?
A: Its relative viability is 1.13.

Q: Which relative viability does the source give for Calu-6 here?
A: The relative viability was 0.911.

Q: With HCC-366 as the cell line, how does the relative viability read?
A: Its relative viability is 1.11.

Q: Which relative viability does the source give for NCI-H1666 here?
A: Its relative viability is 0.938.

Q: Which relative viability does the source give for NCI-H596 here?
A: The relative viability was 0.82.

Q: For LK-2, which relative viability is on record?
A: Its relative viability is 0.896.

Q: NCI-H2087 was tested. Which relative viability did it give?
A: Its relative viability is 0.92.

Q: With SK-MES-1 as the cell line, how does the relative viability read?
A: Its relative viability is 1.37.

Q: With H3255 as the cell line, how does the relative viability read?
A: Its relative viability is 0.473.

Q: Which relative viability does the source give for COR-L23 here?
A: Its relative viability is 1.03.

Q: With IA-LM as the cell line, how does the relative viability read?
A: The relative viability was 0.689.

Q: With HCC-44 as the cell line, how does the relative viability read?
A: The relative viability was 1.02.

Q: A549 was tested. Which relative viability did it give?
A: The relative viability was 1.34.

Q: With NCI-H1299 as the cell line, how does the relative viability read?
A: The relative viability was 1.05.

Q: For NCI-H1792, which relative viability is on record?
A: Its relative viability is 0.621.

Same assay, conditions: first compound 5 µM

Q: For NCI-H727, which relative viability is on record?
A: Its relative viability is 0.458.

Q: With NCI-H1650 as the cell line, how does the relative viability read?
A: The relative viability was 1.26.

Q: EBC-1 was tested. Which relative viability did it give?
A: Its relative viability is 0.389.

Q: NCI-H1703 was tested. Which relative viability did it give?
A: Its relative viability is 1.13.

Q: With NCI-H1993 as the cell line, how does the relative viability read?
A: The relative viability was 0.899.

Q: For SW 1573, which relative viability is on record?
A: The relative viability was 1.02.

Q: With NCI-H838 as the cell line, how does the relative viability read?
A: Its relative viability is 1.19.

Q: With NCI-H520 as the cell line, how does the relative viability read?
A: Its relative viability is 1.2.

Q: NCI-H2126 was tested. Which relative viability did it give?
A: Its relative viability is 0.857.

Q: EMC-BAC-2 was tested. Which relative viability did it give?
A: Its relative viability is 1.23.

Q: Which relative viability does the source give for NCI-H2085 here?
A: The relative viability was 1.24.

Q: With Calu-6 as the cell line, how does the relative viability read?
A: The relative viability was 0.919.

Q: Which relative viability does the source give for HCC-366 here?
A: Its relative viability is 0.981.

Q: With NCI-H1666 as the cell line, how does the relative viability read?
A: Its relative viability is 1.11.

Q: Which relative viability does the source give for NCI-H596 here?
A: Its relative viability is 0.937.

Q: How did the relative viability turn out when LK-2 was run?
A: Its relative viability is 0.893.

Q: Which relative viability does the source give for NCI-H2087 here?
A: Its relative viability is 1.13.

Q: For SK-MES-1, which relative viability is on record?
A: Its relative viability is 1.36.

Q: H3255 was tested. Which relative viability did it give?
A: The relative viability was 0.51.

Q: How did the relative viability turn out when COR-L23 was run?
A: The relative viability was 1.15.

Q: How did the relative viability turn out when IA-LM was run?
A: The relative viability was 0.556.

Q: With HCC-44 as the cell line, how does the relative viability read?
A: Its relative viability is 1.02.

Q: Which relative viability does the source give for A549 here?
A: Its relative viability is 1.27.

Q: Which relative viability does the source give for NCI-H1299 here?
A: The relative viability was 1.08.

Q: For NCI-H1792, which relative viability is on record?
A: Its relative viability is 0.691.

Same assay, conditions: first compound 15.81 µM

Q: For NCI-H727, which relative viability is on record?
A: The relative viability was 0.471.

Q: Which relative viability does the source give for NCI-H1650 here?
A: The relative viability was 1.15.

Q: EBC-1 was tested. Which relative viability did it give?
A: Its relative viability is 0.382.

Q: With NCI-H1703 as the cell line, how does the relative viability read?
A: The relative viability was 0.941.

Q: For NCI-H1993, which relative viability is on record?
A: The relative viability was 0.739.

Q: How did the relative viability turn out when SW 1573 was run?
A: The relative viability was 1.24.

Q: For NCI-H838, which relative viability is on record?
A: The relative viability was 1.14.

Q: How did the relative viability turn out when NCI-H520 was run?
A: Its relative viability is 1.11.

Q: Which relative viability does the source give for NCI-H2126 here?
A: The relative viability was 0.86.

Q: How did the relative viability turn out when EMC-BAC-2 was run?
A: Its relative viability is 1.08.

Q: With NCI-H2085 as the cell line, how does the relative viability read?
A: Its relative viability is 1.02.

Q: Which relative viability does the source give for Calu-6 here?
A: Its relative viability is 0.906.

Q: Which relative viability does the source give for HCC-366 here?
A: Its relative viability is 0.964.

Q: Which relative viability does the source give for NCI-H1666 here?
A: The relative viability was 0.912.

Q: Which relative viability does the source give for NCI-H596 here?
A: The relative viability was 0.92.

Q: Which relative viability does the source give for LK-2 here?
A: Its relative viability is 0.886.

Q: Which relative viability does the source give for NCI-H2087 here?
A: The relative viability was 0.942.

Q: With SK-MES-1 as the cell line, how does the relative viability read?
A: The relative viability was 1.23.

Q: For H3255, which relative viability is on record?
A: Its relative viability is 0.525.

Q: With COR-L23 as the cell line, how does the relative viability read?
A: The relative viability was 0.986.

Q: With IA-LM as the cell line, how does the relative viability read?
A: The relative viability was 0.556.

Q: With HCC-44 as the cell line, how does the relative viability read?
A: The relative viability was 0.959.

Q: With A549 as the cell line, how does the relative viability read?
A: Its relative viability is 1.16.

Q: How did the relative viability turn out when NCI-H1299 was run?
A: The relative viability was 1.07.

Q: Which relative viability does the source give for NCI-H1792 here?
A: Its relative viability is 0.783.

Same assay, conditions: first compound 50 µM

Q: With NCI-H727 as the cell line, how does the relative viability read?
A: Its relative viability is 0.441.

Q: With NCI-H1650 as the cell line, how does the relative viability read?
A: Its relative viability is 1.15.

Q: EBC-1 was tested. Which relative viability did it give?
A: The relative viability was 0.423.

Q: Which relative viability does the source give for NCI-H1703 here?
A: Its relative viability is 0.872.

Q: How did the relative viability turn out when NCI-H1993 was run?
A: Its relative viability is 0.813.

Q: SW 1573 was tested. Which relative viability did it give?
A: The relative viability was 1.06.

Q: NCI-H838 was tested. Which relative viability did it give?
A: Its relative viability is 1.12.

Q: Which relative viability does the source give for NCI-H520 here?
A: The relative viability was 1.18.

Q: For NCI-H2126, which relative viability is on record?
A: Its relative viability is 0.849.

Q: For EMC-BAC-2, which relative viability is on record?
A: Its relative viability is 1.17.

Q: With NCI-H2085 as the cell line, how does the relative viability read?
A: The relative viability was 1.21.

Q: For Calu-6, which relative viability is on record?
A: The relative viability was 0.824.

Q: Which relative viability does the source give for HCC-366 here?
A: Its relative viability is 0.957.

Q: NCI-H1666 was tested. Which relative viability did it give?
A: Its relative viability is 0.858.

Q: For NCI-H596, which relative viability is on record?
A: Its relative viability is 1.06.

Q: LK-2 was tested. Which relative viability did it give?
A: The relative viability was 0.85.

Q: How did the relative viability turn out when NCI-H2087 was run?
A: The relative viability was 1.02.

Q: SK-MES-1 was tested. Which relative viability did it give?
A: Its relative viability is 1.23.

Q: H3255 was tested. Which relative viability did it give?
A: Its relative viability is 0.577.

Q: With COR-L23 as the cell line, how does the relative viability read?
A: Its relative viability is 0.955.

Q: IA-LM was tested. Which relative viability did it give?
A: The relative viability was 0.658.

Q: Which relative viability does the source give for HCC-44 here?
A: Its relative viability is 1.01.

Q: Which relative viability does the source give for A549 here?
A: Its relative viability is 1.27.

Q: How did the relative viability turn out when NCI-H1299 was run?
A: The relative viability was 1.06.

Q: Which relative viability does the source give for NCI-H1792 here?
A: The relative viability was 0.61.
